US11319283B2, “Substituted cyclobutylbenzene compounds as indoleamine 2,3-dioxygenase (IDO) inhibitors” (MERCK SHARP & DOHME CORP., priority 2017, dated 2022)
pIC50: −log10 of the molar value.

How the values were obtained:
TDO = molecular target: T1, TDO (Homo sapiens, UniProt P48775); test: TDO Cellular Assay in Frozen SW48 Cells; type: cell-based; conditions: 300 uM L-tryptophan, about 48 hours, fluorescence readout
T1 construct: endogenous in cells; host or cells: SW48 cells (A2780 cells as control with minimal TDO activity)
Procedure: TDO Cellular Assay in Frozen SW48 Cells
SW48 cells were cultured in complete RPMI culture medium (90% RPMI, 10% heat-inactivated fetal bovine serum).
Compounds to be tested were serially diluted in ten 3-fold steps in DMSO starting from 10 mM DMSO stocks in Echo low volume plate(s). […] The cells were spun down at 350 g in a table top centrifuge for 5 minutes and suspended in same volume of RPMI assay medium. […] Sterile L-tryptophan (Sigma, Cat # T0254) was added to the cells with final concentration of 300 uM.
SW48 and A2780 cells were dispensed to the respective wells of 384-well assay plates containing the compounds. The plates were incubated for about 48 hours at a 37° C., 5% CO2 incubator. Afterwards, 12 μL of 0.5 M ethyl isonipecotate (Sigma Aldrich, Cat # E33505) in dimethyl sulfoxide were added into each well and the plates were sealed and incubated at 37° C. without CO2 overnight. The plates were centrifuged for 1 minute at 200×g. The resulting fluorescence was measured in a Spectramax plate reader (Molecular Devices) with a 400 nm excitation filter and a 510 nm emission filter.
The fluorescence intensity of each well was corrected for the background observed in wells with A2780 cells and was expressed as a fraction of the intensity observed in wells of SW48 cells and DMSO only. Potencies were calculated by linear least squares fit to the four parameter logistic IC50 equation.

IDO1 = IDO1 (Homo sapiens, UniProt P14902); test: IDO1 Cellular Assay in Hela Cells Stimulated with IFNγ; type: cell-based; set-up: endogenous in cells; host or cells: HeLa cells stimulated with IFNγ (100 ng/mL); conditions: Hela cells stimulated with IFNγ 100 ng/mL, 300 uM L-tryptophan, about 48 hours, fluorescence readout
Procedure: IDO1 Cellular Assay in Hela Cells Stimulated with IFNγ
Hela cells were cultured in complete Hela culture medium (90% EMEM, 10% heat-inactivated fetal bovine serum) and expanded to about 1×10^9 cells. The cells were then collected and frozen down at 1×10^7 cells/vial in 1 mL frozen medium (90% complete Hela culture medium, 10% DMSO)
Compounds to be tested were serially diluted in ten 3-fold steps in DMSO starting from 10 mM DMSO stocks in Echo low volume plate(s).
Frozen Hela cells were thawed and transferred into Hela assay medium (99% complete Hela culture medium, 1% Pen/Strep) with 20 mL medium/vial of cells. The cells were spun down at 250 g in a table top centrifuge for 5 min and suspended in same volume of Hela assay medium. The cells were then counted and adjusted to a density of 2×10^5 cells/ml in Hela assay medium. Sterile L-tryptophan were added to the cells with final concentration of 300 uM L-tryptophan. A small aliquot (2 mL/plate) of Hela cells were set aside and were not treated with IFNγ, to serve as the Max-E control.
Hela cells with and without IFNγ were dispensed to the respective wells of 384-well assay plates containing the compounds. The plates were incubated for about 48 hours at a 37° C., 5% CO2 incubator. Afterwards, […] of 0.5 M methyl isonipecotate in dimethyl sulfoxide were added into each well and the plates were sealed and incubated at 37° C. without CO2 overnight. The plates were centrifuged for 1 min at 200×g. The resulting fluorescence was measured in a Spectramax plate reader (Molecular Devices) with a 400 nm excitation filter and a 510 nm emission filter.
Potencies were calculated by linear least squares fit to the four parameter logistic IC50 equation.

T1 sequence (P48775 whole entry): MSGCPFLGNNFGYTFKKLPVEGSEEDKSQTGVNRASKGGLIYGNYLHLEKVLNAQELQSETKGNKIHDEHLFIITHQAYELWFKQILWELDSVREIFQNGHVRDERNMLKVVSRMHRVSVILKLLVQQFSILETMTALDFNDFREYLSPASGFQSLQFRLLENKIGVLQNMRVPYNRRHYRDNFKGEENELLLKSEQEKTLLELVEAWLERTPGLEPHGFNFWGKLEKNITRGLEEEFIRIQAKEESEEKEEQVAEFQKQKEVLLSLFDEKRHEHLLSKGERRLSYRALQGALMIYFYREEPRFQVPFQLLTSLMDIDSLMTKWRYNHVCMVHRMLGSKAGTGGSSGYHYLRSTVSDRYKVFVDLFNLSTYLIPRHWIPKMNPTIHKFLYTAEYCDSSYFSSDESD
Sequence of IDO1 (P14902 whole entry): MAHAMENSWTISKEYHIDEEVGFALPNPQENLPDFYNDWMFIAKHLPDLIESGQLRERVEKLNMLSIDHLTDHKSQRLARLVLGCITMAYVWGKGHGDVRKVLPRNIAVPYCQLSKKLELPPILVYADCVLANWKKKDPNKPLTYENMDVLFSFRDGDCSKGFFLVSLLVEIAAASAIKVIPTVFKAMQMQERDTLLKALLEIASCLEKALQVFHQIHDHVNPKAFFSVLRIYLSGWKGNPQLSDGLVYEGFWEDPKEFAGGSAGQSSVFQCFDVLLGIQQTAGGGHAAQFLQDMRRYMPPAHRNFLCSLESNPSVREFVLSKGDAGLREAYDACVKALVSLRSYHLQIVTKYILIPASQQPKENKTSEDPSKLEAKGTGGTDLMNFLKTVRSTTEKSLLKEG

Compound	pIC50 (TDO)	pIC50 (IDO1)
CC1CC1NC(=O)C1(c2ccc(NC(=O)c3cccc(Cl)c3)cc2)CCC1 (single isomer, unassigned) [Example 22, 3-chloro-N-(4-(1-((2-methylcyclopropyl)carbamoyl)cyclobutyl)phenyl)benzamide]	≤ 5.00	7.46
CC1CC1NC(=O)C1(c2ccc(NC(=O)c3cccc(Cl)c3)cc2)CCC1 (single isomer, unassigned) [Example 23, 3-chloro-N-(4-(1-((2-methylcyclopropyl)carbamoyl)cyclobutyl)phenyl)benzamide]	≤ 5.00	7.11
CCCC(=O)NC1(c2ccc(NC(=O)c3cccc(Cl)c3)cc2)CCC1 [Example 1, N-(4-(1-Butyramidocyclobutyl)phenyl)-3-chlorobenzamide]		7.32
O=C(Nc1ccc(C2(NC(=O)c3cnccn3)CCC2)cc1)c1cccc(Cl)c1 [Example 3, N-(1-{4-[(3-chlorobenzene-1-carbonyl)amino]phenyl}cyclobutyl)pyrazine-2-carboxamide]	≤ 5.00	6.88
O=C(Nc1ccc(C2(NC(=O)c3ncccc3Cl)CCC2)cc1)c1cccc(Cl)c1 [Example 4, 3-chloro-N-(1-{4-[(3-chlorobenzene-1-carbonyl)amino]phenyl}cyclobutyl)pyridine-2-carboxamide]	≤ 5.00	6.87
O=C(Nc1ccc(C2(NC(=O)c3cc(Cl)ccn3)CCC2)cc1)c1cccc(Cl)c1 [Example 5, 4-chloro-N-(1-{4-[(3-chlorobenzene-1-carbonyl)amino]phenyl}cyclobutyl)pyridine-2-carboxamide]	≤ 5.00	6.87
Cn1ccnc1C(=O)NC1(c2ccc(NC(=O)c3cccc(Cl)c3)cc2)CCC1 [Example 6, N-(1-{4-[(3-chlorobenzene-1-carbonyl)amino]phenyl}cyclobutyl)-1-methyl-1H-imidazole-2-carboxamide]	≤ 5.00	6.24
O=C(Nc1ccc(C2(NC(=O)c3ccc(Cl)c(F)c3)CCC2)cc1)c1cccc(Cl)c1 [Example 8, 4-chloro-N-(1-{4-[(3-chlorobenzene-1-carbonyl)amino]phenyl}cyclobutyl)-3-fluorobenzamide]	≤ 5.00	8.40
O=C(Nc1ccc(C2(NC(=O)c3ccc(Cl)cn3)CCC2)cc1)c1cccc(Cl)c1 [Example 9, 5-chloro-N-(1-{4-[(3-chlorobenzene-1-carbonyl)amino]phenyl}cyclobutyl)pyridine-2-carboxamide]	≤ 5.00	7.96
O=C(Nc1ccc(C2(NC(=O)c3ccc(F)c(F)c3)CCC2)cc1)c1cccc(Cl)c1 [Example 10, N-(1-{4-[(3-chlorobenzene-1-carbonyl)amino]phenyl}cyclobutyl)-3,4-difluorobenzamide]	≤ 5.00	7.85
O=C(Nc1ccc(C2(NC(=O)c3ccc(Cl)c(Cl)c3)CCC2)cc1)c1cccc(Cl)c1 [Example 11, 3,4-dichloro-N-(1-{4-[(3-chlorobenzene-1-carbonyl)amino]phenyl}cyclobutyl)benzamide]	≤ 5.00	7.72
Cn1ccc(C(=O)NC2(c3ccc(NC(=O)c4cccc(Cl)c4)cc3)CCC2)n1 [Example 13, N-(1-{4-[(3-chlorobenzene-1-carbonyl)amino]phenyl}cyclobutyl)-1-methyl-1H-pyrazole-3-carboxamide]	≤ 5.00	7.52
O=C(Nc1ccc(C2(NC(=O)c3cocn3)CCC2)cc1)c1cccc(Cl)c1 [Example 16, N-(1-{4-[(3-chlorobenzene-1-carbonyl)amino]phenyl}cyclobutyl)-1,3-oxazole-4-carboxamide]	≤ 5.00	7.04
O=C(Nc1ccc(C2(C(=O)Nc3ccc(Cl)cc3)CCC2)cc1)c1cccc(Cl)c1 [Example 24, 3-chloro-N-(4-{1-[(4-chlorophenyl)carbamoyl]cyclobutyl}phenyl) benzamide]	≤ 5.00	8.52
O=C(Nc1ccc(C2(C(=O)Nc3ccc(F)cc3F)CCC2)cc1)c1cccc(Cl)c1 [Example 25, 3-chloro-N-(4-{1-[(2,4-difluorophenyl)carbamoyl]cyclobutyl}phenyl) benzamide]	≤ 5.00	8.52
O=C(Nc1ccc(C2(C(=O)Nc3ccc(F)c(F)c3)CCC2)cc1)c1cccc(Cl)c1 [Example 26, 3-chloro-N-(4-{1-[(3,4-difluorophenyl)carbamoyl]cyclobutyl}phenyl) benzamide]	≤ 5.00	8.52
O=C(Nc1ccc(C2(C(=O)Nc3ccc(F)nc3)CCC2)cc1)c1cccc(Cl)c1 [Example 29, 3-chloro-N-(4-{1-[(6-fluoropyridin-3-yl)carbamoyl]cyclobutyl}phenyl)benzamide]	≤ 5.00	8.40
O=C(Nc1ccc(C2(C(=O)NC3CC(F)(F)C3)CCC2)cc1)c1cccc(Cl)c1 [Example 38, 3-chloro-N-(4-{1-[(3,3-difluorocyclobutyl)carbamoyl]cyclobutyl}phenyl) benzamide]		7.51
O=C(Nc1ccc(C2(C(=O)NC34CC(C3)C4)CCC2)cc1)c1cccc(Cl)c1 [Example 39, N-(4-{1-[(bicyclo[1.1.1]pentan-1-yl)carbamoyl]cyclobutyl}phenyl)-3-chlorobenzamide]		7.47
CC(NC(=O)C1(c2ccc(NC(=O)c3cccc(Cl)c3)cc2)CCC1)C1CC1 (stereo not shown) [Example 41, 3-chloro-N-(4-{1-[(1-cyclopropylethyl)carbamoyl]cyclobutyl}phenyl) benzamide]		7.00
CC(NC(=O)C1(c2ccc(NC(=O)c3cccc(Cl)c3)cc2)CCC1)C1CCCO1 (stereo not shown) [Example 43, 3-chloro-N-[4-(1-{[1-(oxolan-2-yl)ethyl]carbamoyl}cyclobutyl)phenyl]benzamide]		6.18
CC1CC1NC(=O)C1(c2ccc(NC(=O)c3cccc(Cl)c3)cc2)CCC1 (stereo not shown) [Example 46, 3-chloro-N-(4-{1-[(2-methylcyclopropyl)carbamoyl]cyclobutyl}phenyl) benzamide]		7.89
O=C(Nc1ccc(C2(C(=O)NCCC(F)(F)F)CCC2)cc1)c1cccc(Cl)c1 [Example 47, 3-chloro-N-(4-{1-[(3,3,3-trifluoropropyl)carbamoyl]cyclobutyl}phenyl) benzamide]		7.59
O=C(Nc1ccc(C2(C(=O)NCC3CC3)CCC2)cc1)c1cccc(Cl)c1 [Example 48, 3-chloro-N-(4-{1-[(cyclopropylmethyl)carbamoyl]cyclobutyl}phenyl)benzamide]		7.57
CCNC(=O)C1(c2ccc(NC(=O)c3cccc(Cl)c3)cc2)CCC1 [Example 50]		6.82
CCCNC(=O)C1(c2ccc(NC(=O)c3nnsc3C)cc2)CCC1 [Example 54, 5-Methyl-N-(4-(1-(propylcarbamoyl)cyclobutyl)phenyl)-1,2,3-thiadiazole-4-carboxamide]		6.30
CCCNC(=O)C1(c2ccc(NC(=O)c3ccc(CN)cc3)cc2)CCC1 [Example 55, 4-(aminomethyl)-N-{4-[1-(propylcarbamoyl)cyclobutyl]phenyl} benzamide]		6.21
CCCNC(=O)C1(c2ccc(NC(=O)c3cc(C)no3)cc2)CCC1 [Example 56, 3-methyl-N-{4-[1-(propylcarbamoyl)cyclobutyl]phenyl}-1,2-oxazole-5-carboxamide]		6.03
CCCNC(=O)C1(c2ccc(NC(=O)c3coc(CC)n3)cc2)CCC1 [Example 57, 2-ethyl-N-{4-[1-(propylcarbamoyl)cyclobutyl]phenyl}-1,3-oxazole-4-carboxamide]		5.77
CCCNC(=O)C1(c2ccc(NC(=O)c3cn4ncccc4n3)cc2)CCC1 [Example 58, N-{4-[1-(propylcarbamoyl)cyclobutyl]phenyl}imidazo[1,2-b]pyridazine-2-carboxamide]		5.70
